The structures appear in SMILES notation. Read-outs that look alike come from different tables or passages of the source. Where only a bound is given, the exact number is not on record here.

The target in experiment [1] is H1047R PIK3CA enzyme (Homo sapiens, UniProt P42336, H1047R). Kind of experiment: ADP-Glo Biochemical PIK3CA Kinase Assay.
A short description of experiment [2]: cells. Particulars: Homo sapiens, MCF-10A, read-out: MCF10A I50.
Setting [3] is: ADP-Glo biochemical PIK3CA kinase assay.

Chain of H1047R PIK3CA enzyme (P42336 whole entry H1047R): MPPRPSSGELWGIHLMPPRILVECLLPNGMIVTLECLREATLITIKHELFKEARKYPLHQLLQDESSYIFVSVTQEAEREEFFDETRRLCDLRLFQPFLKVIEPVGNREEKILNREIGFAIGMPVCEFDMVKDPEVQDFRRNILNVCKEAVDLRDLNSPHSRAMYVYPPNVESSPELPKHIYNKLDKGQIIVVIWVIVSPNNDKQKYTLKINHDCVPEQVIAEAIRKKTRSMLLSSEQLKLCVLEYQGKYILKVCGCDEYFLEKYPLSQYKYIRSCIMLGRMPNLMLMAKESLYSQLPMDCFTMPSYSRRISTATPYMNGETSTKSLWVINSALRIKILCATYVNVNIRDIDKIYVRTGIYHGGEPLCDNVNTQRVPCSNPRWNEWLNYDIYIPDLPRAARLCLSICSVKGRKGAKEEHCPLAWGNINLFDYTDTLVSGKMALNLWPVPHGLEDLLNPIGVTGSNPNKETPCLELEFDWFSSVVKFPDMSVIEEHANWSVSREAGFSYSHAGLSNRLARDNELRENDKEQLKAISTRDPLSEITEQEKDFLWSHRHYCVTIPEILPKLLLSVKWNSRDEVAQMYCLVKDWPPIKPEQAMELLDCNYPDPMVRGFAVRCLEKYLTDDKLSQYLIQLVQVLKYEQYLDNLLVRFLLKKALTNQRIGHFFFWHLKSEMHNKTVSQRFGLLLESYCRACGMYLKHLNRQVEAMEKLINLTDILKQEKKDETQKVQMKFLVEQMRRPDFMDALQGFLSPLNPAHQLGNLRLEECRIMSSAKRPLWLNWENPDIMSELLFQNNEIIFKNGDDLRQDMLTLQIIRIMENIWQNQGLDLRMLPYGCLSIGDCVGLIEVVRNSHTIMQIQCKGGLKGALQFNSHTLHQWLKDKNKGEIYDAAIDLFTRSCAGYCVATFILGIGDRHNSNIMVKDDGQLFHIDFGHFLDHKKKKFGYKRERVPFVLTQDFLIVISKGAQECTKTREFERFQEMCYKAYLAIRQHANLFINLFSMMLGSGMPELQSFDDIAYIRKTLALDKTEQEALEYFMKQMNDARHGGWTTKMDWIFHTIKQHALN
Chain of H1047R PIK3CA enzyme (P27986 whole entry partner): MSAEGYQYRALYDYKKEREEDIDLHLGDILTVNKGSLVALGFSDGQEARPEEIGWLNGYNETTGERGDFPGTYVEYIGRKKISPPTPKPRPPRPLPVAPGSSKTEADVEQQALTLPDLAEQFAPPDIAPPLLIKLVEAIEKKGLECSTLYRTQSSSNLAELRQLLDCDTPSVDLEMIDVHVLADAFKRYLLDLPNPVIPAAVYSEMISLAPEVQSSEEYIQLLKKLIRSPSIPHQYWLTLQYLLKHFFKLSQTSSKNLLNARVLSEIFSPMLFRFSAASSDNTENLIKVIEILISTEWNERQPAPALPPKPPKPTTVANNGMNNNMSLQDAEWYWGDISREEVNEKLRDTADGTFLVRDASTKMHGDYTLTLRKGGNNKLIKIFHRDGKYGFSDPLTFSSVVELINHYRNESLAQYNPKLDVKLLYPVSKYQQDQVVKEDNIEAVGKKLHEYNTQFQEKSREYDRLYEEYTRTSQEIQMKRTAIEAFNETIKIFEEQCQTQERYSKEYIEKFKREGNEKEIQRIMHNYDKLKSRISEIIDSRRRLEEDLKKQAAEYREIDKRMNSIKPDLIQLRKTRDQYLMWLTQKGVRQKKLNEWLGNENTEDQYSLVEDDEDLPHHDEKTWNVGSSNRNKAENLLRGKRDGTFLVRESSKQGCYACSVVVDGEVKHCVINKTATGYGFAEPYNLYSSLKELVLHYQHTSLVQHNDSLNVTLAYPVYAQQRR

As to `CNC(=O)c1cnc(Nc2ccccc2C)c(NS(=O)(=O)c2ccc(F)cc2C)c1` [I-8], the IC50 in experiment [1] was 100 to 500 nM; in experiment [2] it was 1 to 5 µM.
As for `Cc1ccccc1Nc1ncc(C(=O)NCc2cnccc2C(F)(F)F)cc1NC(=O)c1csc2ccccc12` [I-525], the IC50 in experiment [1] (setting [3]) was no more than 100 nM; in experiment [2], 10 to 36 µM.
For `CNC(=O)c1cnc(Nc2cccc(C)c2Cl)c(NC(=O)c2cc(F)cc(C(F)(F)F)c2)c1` [I-294], the IC50 in experiment [1] lay in the range of 1000 to 10000 nM; in experiment [2], 36 to 100 µM.
For the compound `O=C(Nc1cc(C(=O)NC2CS(=O)(=O)C2)cnc1N1CCCc2ccccc21)c1cc(F)cc(C(F)(F)F)c1` [I-208], the values for the IC50 in experiment [1] and in experiment [2] were 500 to 1000 nM and 5 to 10 µM, respectively.
The like results for `Cc1ccccc1Nc1ncc(NC(=O)OC(C)(C)C)cc1NC(=O)c1cc(F)cc(C(F)(F)F)c1` [I-54] were, in that order, 1000 to 10000 nM and 10 to 36 µM.
For `Cc1ccccc1Nc1ncc(C(=O)Nc2ccc3cccnc3c2)cc1NC(=O)c1csc2ccccc12` [I-539], the figures for the IC50 in experiment [1] (setting [3]) and in experiment [2] were 500 to 1000 nM and 36 to 100 µM, respectively.
The corresponding values for `Cc1ccccc1Nc1ncc(C(=O)NCc2ccncn2)cc1NC(=O)c1csc2ccccc12` [I-572] are 100 to 500 nM and less than 1 µM.
The like results for `CNC(=S)c1cnc(Nc2ccccc2C)c(NC(=O)c2csc3ccccc23)c1` [I-412] were, in that order, 100 to 500 nM and 10 to 36 µM.
The like results for `Cc1ccccc1Nc1ncc(C(=O)NCC2(O)CCOCC2)cc1NC(=O)c1csc2ccccc12` [I-603] were, in that order, 500 to 1000 nM and 10 to 36 µM.
For the compound `Cc1ccccc1Nc1ncc(C(=O)NC2CC3(COC3)C2)cc1NC(=O)c1cc(F)cc(C(F)(F)F)c1` [I-267], the IC50 in experiment [1] was 100 to 500 nM; in experiment [2], less than 1 µM.
As to `Cc1ccccc1Nc1ncc(C(=O)NCc2cccnc2)cc1NC(=O)c1cc(F)cc(C(F)(F)F)c1` [I-700], the IC50 fell in the range of 100 to 500 nM in experiment [1] (setting [3]) and 10 to 36 µM in experiment [2].
For `Cc1ccccc1Nc1ncc(C(=O)Nc2ccc3cn(C)nc3c2)cc1NC(=O)c1csc2ccccc12` [I-609], the IC50 in experiment [1] (setting [3]) is no more than 100 nM; in experiment [2], 1 to 5 µM.
For the compound `Cc1ccccc1Nc1ncc(C(=O)NCc2nc(C3CC3)no2)cc1NC(=O)c1csc2ccccc12` [I-540], the results for the IC50 in experiment [1] (setting [3]) and in experiment [2] were no more than 100 nM and 1 to 5 µM, respectively.
On to `Cc1ccccc1Nc1ncc(C(=O)NCc2ccc3c(c2)OCCO3)cc1NC(=O)c1csc2ccccc12` [I-534], for which the IC50 is no more than 100 nM in experiment [1] (setting [3]) and 10 to 36 µM in experiment [2].
In the case of `Cc1ccccc1Nc1ncc(C(=O)Nc2cn(C)cn2)cc1NC(=O)c1csc2ccccc12` [I-508], the IC50 is 100 to 500 nM in experiment [1] (setting [3]) and 10 to 36 µM in experiment [2].
The like results for `Cc1ccccc1Nc1ncc(C(=O)NCc2nccc3ccccc23)cc1NC(=O)c1csc2ccccc12` [I-593] were, in that order, 100 to 500 nM and 10 to 36 µM.
`CNC(=O)c1cnc(Nc2cccc(F)c2F)c(NC(=O)c2cc(F)cc(C(F)(F)F)c2)c1` [I-296]: the IC50 is 100 to 500 nM in experiment [1] and 5 to 10 µM in experiment [2].
Take `Cc1ccccc1Nc1ncc(C(=O)Nc2ncn(C)n2)cc1NC(=O)c1csc2ccccc12` [I-573]: the IC50 was 500 to 1000 nM in experiment [1] (setting [3]) and 10 to 36 µM in experiment [2].
On to `CNC(=O)c1cnc(Nc2ccccc2C)c(NC(=O)c2csc3ccc(F)cc23)c1` [I-150], for which the results for the IC50 in experiment [1] and in experiment [2] were 100 to 500 nM and 5 to 10 µM, respectively.
`Cc1ccccc1Nc1ncc(C(=O)N[C@H]2C[C@H](O)C2)cc1NC(=O)c1csc2ccccc12` [I-399]: the values for the IC50 in experiment [1] (setting [3]) and in experiment [2] were no more than 100 nM and 1 to 5 µM, respectively.
The corresponding values for `CNC(=O)c1cnc(Nc2ccccc2C)c(NC(=O)c2coc3c(F)cc(F)cc23)c1` [I-406] are 500 to 1000 nM and 1 to 5 µM.
Turning to `Cc1ccccc1Nc1ncc(-c2cncnc2)cc1NC(=O)c1cc(F)cc(C(F)(F)F)c1` [I-7], the IC50 in experiment [1] was in the range of 100 to 500 nM; in experiment [2], 5 to 10 µM.
The like results for `Cc1ccccc1Nc1ncc(C(=O)NC2CC(F)(F)C2)cc1NC(=O)c1nsc2ccccc12` [I-332] were, in that order, 100 to 500 nM and 5 to 10 µM.
Consider `Cc1ccccc1Nc1ncc(C(=O)N[C@H]2C[C@@H](C(N)=O)C2)cc1NC(=O)c1csc2ccccc12` [I-591], for which the figures for the IC50 in experiment [1] (setting [3]) and in experiment [2] were no more than 100 nM and 1 to 5 µM, respectively.
`Cc1ccccc1Nc1ncc(C(=O)NC(C)c2ccccc2)cc1NC(=O)c1csc2ccccc12` (stereo not drawn) [I-197]: the figures for the IC50 in experiment [1] and in experiment [2] were no more than 100 nM and 10 to 36 µM, respectively.
As for `Cc1ccccc1Nc1ncc(CNC2CS(=O)(=O)C2)cc1NC(=O)c1cc(F)cc(C(F)(F)F)c1` [I-411], the IC50 fell in the range of 1000 to 10000 nM in experiment [1] (setting [3]) and 10 to 36 µM in experiment [2].
The corresponding values for `Cc1ccccc1Nc1ncc(C(=O)NCc2nnc3ccccn23)cc1NC(=O)c1csc2ccccc12` [I-582] are no more than 100 nM and 5 to 10 µM.
Turning to `CNC(=O)c1cnc(Nc2cn(C)nc2C)c(NC(=O)c2cc(F)cc(C(F)(F)F)c2)c1` [I-289], the results for the IC50 in experiment [1] and in experiment [2] were 10000 to 100000 nM and 36 to 100 µM, respectively.
On to `Cc1ccccc1Nc1ncc(C(=O)Nc2cccnc2)cc1NC(=O)c1cc(F)cc(C(F)(F)F)c1` [I-239], for which the IC50 lay in the range of 100 to 500 nM in experiment [1] and 1 to 5 µM in experiment [2].
For the compound `CCn1ccc(C)c(CNC(=O)c2cnc(Nc3ccccc3C)c(NC(=O)c3csc4ccccc34)c2)c1=O` [I-611], the IC50 lay within 100 to 500 nM in experiment [1] (setting [3]) and 5 to 10 µM in experiment [2].
In the case of `Cc1ccccc1Nc1ncc(C(=O)NC2CCC(O)CC2)cc1NC(=O)c1cc(F)cc(C(F)(F)F)c1` (stereo not drawn) [I-276], the IC50 lay within 100 to 500 nM in experiment [1] and 1 to 5 µM in experiment [2].
For the compound `CNC(=O)c1cnc(Nc2ccccc2C)c(NC(=O)c2cc(C)nc(C(F)(F)F)c2)c1` [I-765], the values for the IC50 in experiment [1] (setting [3]) and in experiment [2] were 100 to 500 nM and 1 to 5 µM, respectively.
On to `Cc1ccccc1Nc1ncc(C(=O)NCC2CCCOC2)cc1NC(=O)c1csc2ccccc12` (stereo not drawn) [I-621], for which the values for the IC50 in experiment [1] (setting [3]) and in experiment [2] were 100 to 500 nM and 10 to 36 µM, respectively.
For `CNC(=O)c1cnc(Nc2ccccc2C)c(NC(=O)c2cnc(OC)c(C(F)(F)F)c2)c1` [I-535], the IC50 in experiment [1] (setting [3]) was 1000 to 10000 nM; in experiment [2], 10 to 36 µM.
Regarding `CNC(=O)c1cnc(Nc2ccccc2C)c(NC(=O)c2cc(Br)cc3c2cnn3C)c1` [I-510], the IC50 in experiment [1] (setting [3]) lay within 100 to 500 nM; in experiment [2], 10 to 36 µM.
Consider `CNC(=O)c1ccc(-c2cnc(Nc3ccccc3C)c(NC(=O)c3cc(F)cc(C(F)(F)F)c3)c2)cc1` [I-84], for which the IC50 is 1000 to 10000 nM in experiment [1] and 5 to 10 µM in experiment [2].
The like results for `CNC(=O)c1cnc(Nc2cccc(Cl)c2C)c(NC(=O)c2cc(F)cc(C(F)(F)F)c2)c1` [I-290] were, in that order, 1000 to 10000 nM and 36 to 100 µM.
On to `Cc1cncc(CNC(=O)c2cnc(Nc3ccccc3C)c(NC(=O)c3csc4ccccc34)c2)c1` [I-579], for which the IC50 in experiment [1] (setting [3]) is no more than 100 nM; in experiment [2] it was 5 to 10 µM.
Take `Cc1ccccc1Nc1ncc(C(=O)NC2CC(O)C2)cc1NC(=O)c1cc(F)cc(C(F)(F)F)c1` (stereo not drawn) [I-274]: the IC50 in experiment [1] fell in the range of 100 to 500 nM; in experiment [2] it was 1 to 5 µM.
With `Cc1ccccc1Nc1ncc(C(=O)NCc2nccs2)cc1NC(=O)c1cc(F)cc(C(F)(F)F)c1` [I-65], the IC50 in experiment [1] was 100 to 500 nM; in experiment [2], 1 to 5 µM.
With `Cc1ccccc1Nc1ncc(-c2cnn(C)c2)cc1NC(=O)c1csc2ccccc12` [I-93], the IC50 in experiment [1] fell in the range of 100 to 500 nM; in experiment [2], 5 to 10 µM.
For `Cc1ccccc1Nc1ncc(C(=O)N[C@H]2CCN(C)C2)cc1NC(=O)c1cc(F)cc(C(F)(F)F)c1` (stereo in doubt) [I-67], the IC50 in experiment [1] was 500 to 1000 nM; in experiment [2], 10 to 36 µM.
The like results for `CNC(=O)c1cnc(Nc2ccccc2C)c(NC(=O)c2cc(F)cc(OC(F)(F)F)c2)c1` [I-312] were, in that order, 1000 to 10000 nM and 36 to 100 µM.
The corresponding values for `Cc1ccccc1Nc1ncc(C(=O)Nc2ccncc2)cc1NC(=O)c1cc(F)cc(C(F)(F)F)c1` [I-234] are 100 to 500 nM and less than 1 µM.
As for `Cc1ccccc1Nc1ncc(C(=O)NCC2(C#N)CC2)cc1NC(=O)c1csc2ccccc12` [I-580], the values for the IC50 in experiment [1] (setting [3]) and in experiment [2] were no more than 100 nM and 1 to 5 µM, respectively.
In the case of `CNC(=O)c1cnc(Nc2nccs2)c(NC(=O)c2cc(F)cc(C(F)(F)F)c2)c1` [I-299], the IC50 fell in the range of 10000 to 100000 nM in experiment [1] and 36 to 100 µM in experiment [2].
The corresponding values for `Cc1ccccc1Nc1ncc(C(N)=O)cc1NC(=O)c1cc(F)cc(C(F)(F)F)c1` [I-28] are 500 to 1000 nM and 5 to 10 µM.
The like results for `CNC(=O)c1cnc(Nc2ccccc2C)c(NC(=O)Cc2ccc(O)c(O)c2)c1` [I-30] were, in that order, 500 to 1000 nM and 5 to 10 µM.
`Cc1ccccc1Nc1ncc(C(=O)NC2(C)CC2)cc1NC(=O)c1csc2ccccc12` [I-581]: the IC50 is no more than 100 nM in experiment [1] (setting [3]) and 1 to 5 µM in experiment [2].
Consider `CNC(=O)c1cnc(Nc2ccccc2C)c(NC(=O)c2nsc3ccccc23)c1` [I-139], for which the IC50 in experiment [1] was in the range of 500 to 1000 nM; in experiment [2], 10 to 36 µM.
Turning to `Cc1ccccc1Nc1ncc(-c2ccc(C(N)=O)cc2)cc1NC(=O)c1cc(F)cc(C(F)(F)F)c1` [I-79], the values for the IC50 in experiment [1] and in experiment [2] were 100 to 500 nM and 5 to 10 µM, respectively.
For the compound `Cc1ccccc1Nc1ncc(-c2cccc(S(N)(=O)=O)c2)cc1NC(=O)c1cc(F)cc(C(F)(F)F)c1` [I-45], the IC50 was in the range of 100 to 500 nM in experiment [1] and 1 to 5 µM in experiment [2].
Regarding `CNC(=O)c1cnc(NC2CCOc3ccc(F)cc32)c(NC(=O)c2csc3ccccc23)c1` (stereo not drawn) [I-745], the figures for the IC50 in experiment [1] (setting [3]) and in experiment [2] were 100 to 500 nM and 5 to 10 µM, respectively.
In the case of `Cc1ccccc1Nc1ncc(C(=O)NC2CS(=O)(=O)C2)cc1NC(=O)c1nsc2ccccc12` [I-330], the IC50 lay within 100 to 500 nM in experiment [1] and 1 to 5 µM in experiment [2].

The values are drawn from patent publication US20250090540A1, “PI3K-ALPHA INHIBITORS AND METHODS OF USE THEREOF” (Relay Therapeutics, Inc., priority 2021, published 2025).
